{"source": "paper PMC8511391", "about": "“Optimization of Pichia pastoris Expression System for High-Level Production of Margatoxin” (Frontiers in Pharmacology, 2021)", "origin": "cited, not measured here", "key": {"Kv1.1": {"test_system": "Kv1.1", "conditions": "abstract, ref not given; cited from earlier work", "source_text": "Margatoxin (MgTx) is a high-affinity blocker of voltage-gated potassium (Kv) channels. […] This toxin is widely used to study physiological function of Kv ion channels in various cell types, including immune cells. Isolation of native MgTx in large quantities from scorpion venom is not affordable. Chemical synthesis and recombinant production in Escherichia coli need in vitro oxidative refolding for proper disulfide bond formation, resulting in a very low yield of peptide production. The Pichia pastoris expression system offers an e ..."}, "Kv1.2": {"test_system": "Kv1.2", "conditions": "2014, cited from earlier work", "procedure": "Margatoxin (MgTx) is a 39-amino-acid peptide toxin isolated from the venom of the scorpion Centruroides margaritatus. Its 3D structure consists of an α-helix and three antiparallel β-strands stabilized by three disulfide bonds. […] Previous studies report the production of recombinant MgTx (rMgTx) in E. coli and P. ... || Pharmacological activity of both versions of rMgTx was evaluated by studying their effect on the hKv1.2 and hKv1.3 ion channels. The hKv1.2 current was recorded in CHO cells, which heterologously expressed the hKv1.2 ion channel, and hKv1.3 current was recorded in the human peripheral blood lymphocytes. The stimulation of the hKv1.3 channel expression (activation of isolated mononuclear cells by PHA, see the Materials and Methods section) and recording conditions (no Ca^2+ in the pipette to elicit Ca^2+-activated K^+ channels) guaranteed that the current recorded in these cells is K^+ current ... || The kinetics of current block by UrMgTx was consistent with previously reported data for MgTx. […] The association rate of TrMgTx, which has the N-terminal His-tag, was ∼1.6-fold lower than that of UrMgTx for both hKv1.2 and hKv1.3. The reduced k on rate could be explained by non–diffusion-limited bimolecular toxin–channe ..."}, "Kv1.3": {"test_system": "Kv1.3", "conditions": "2014, cited from earlier work", "procedure": "Voltage-gated potassium (Kv) channels are present in a variety of cells and tissues where they regulate multiple physiological processes, including cardiac function, neural excitability, muscle contraction, cell proliferation, cell volume control, and hormonal secretion ([Coetzee et al., 1999]; [Giangiacomo et al., 2004]). […] Previous studies report the production of recombinant MgTx (rMgTx) in E. coli and P. ... || Pharmacological activity of both versions of rMgTx was evaluated by studying their effect on the hKv1.2 and hKv1.3 ion channels. The hKv1.2 current was recorded in CHO cells, which heterologously expressed the hKv1.2 ion channel, and hKv1.3 current was recorded in the human peripheral blood lymphocytes. The stimulation of the hKv1.3 channel expression (activation of isolated mononuclear cells by PHA, see the Materials and Methods section) and recording conditions (no Ca^2+ in the pipette to elicit Ca^2+-activated K^+ channels) guaranteed that the current recorded in these cells is K^+ current ... || (+ 2 further places)"}, "[1]": {"conditions": "ref Garcia-Calvo et al., 1993, Bartok et al."}}}
{"substance": "MgTx (TIINVKCTSPKQCLPPCKAQFGQSAGAKCMNGKCKCYPH; UniProt P40755 1-39, looked up)", "values": [{"measurement": "inhibition of Kv1.1", "setting": "Kv1.1", "result": "in picomolar concentrations"}, {"measurement": "kinetics and reversibility of block, hKv1.2", "setting": "Kv1.2; hKv1.2, whole-cell patch-clamp, ref Bartok et al.", "result": "develops relatively slowly and reversibility of the block is limited"}, {"measurement": "inhibition of Kv1.2", "setting": "Kv1.2; [1]", "result": "high potency in picomolar concentrations"}, {"measurement": "kinetics and reversibility of block, hKv1.3", "setting": "Kv1.3; hKv1.3, whole-cell patch-clamp, ref Bartok et al.", "result": "equilibrium block develops rapidly and is fully recoverable upon washout"}, {"measurement": "inhibition of Kv1.3", "setting": "Kv1.3; [1]", "result": "high potency in picomolar concentrations"}]}
